Test results as given in patent publication US8192962B2, “Processes for detecting toxic substances” (Daikin Industries, Ltd., priority 2001, dated 2012).

Test system: Energy system protein genes
Test: DNA chip mRNA expression in yeast, energy system protein genes (Table 4)
Type: cell-based, Saccharomyces cerevisiae S288C
Outline: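 Expression change after 2 h toxicant exposure (growth-inhibiting, sub-lethal) of log-phase S. cerevisiae S288C at 25° C. Oligo-dT-purified mRNA was labeled with Cy3-dUTP or Cy5-dUTP and hybridized >12 h at 65° C. to a genome-wide chip; ratio of scanned fluorescence to control.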

[Cl][Pb][Cl] [(4), PbCl2]
The level of expressed mRNA in the presence of chemical substance/The level of expressed mRNA in the absence of chemical substance (yeast gene YJR048W): 1.4 | The level of expressed mRNA in the presence of chemical substance/The level of expressed mRNA in the absence of chemical substance (yeast gene YJR121W, cells incubated two hours with the chemical substance): 1.0 | The level of expressed mRNA in the presence of chemical substance/The level of expressed mRNA in the absence of chemical substance (yeast gene YJR155W): 2.5 | The level of expressed mRNA in the presence of chemical substance/The level of expressed mRNA in the absence of chemical substance (yeast gene YKL016C, cells incubated two hours with the chemical substance): 1.7 | The level of expressed mRNA in the presence of chemical substance/The level of expressed mRNA in the absence of chemical substance (yeast gene YKL060C, cells incubated two hours with the chemical substance): 1.0 | The level of expressed mRNA in the presence of chemical substance/The level of expressed mRNA in the absence of chemical substance (yeast gene YKL141W, cells incubated two hours with the chemical substance): 1.7 | The level of expressed mRNA in the presence of chemical substance/The level of expressed mRNA in the absence of chemical substance (yeast gene YKL148C, cells incubated two hours with the chemical substance): 0.7 | The level of expressed mRNA in the presence of chemical substance/The level of expressed mRNA in the absence of chemical substance (yeast gene YKR009C, cells incubated two hours with the chemical substance): 0.9 | The level of expressed mRNA in the presence of chemical substance/The level of expressed mRNA in the absence of chemical substance (yeast gene YKR058W, cells incubated two hours with the chemical substance, 25° C., YPD medium): 1.9 | The level of expressed mRNA in the presence of chemical substance/The level of expressed mRNA in the absence of chemical substance (yeast gene YKR097W): 3.3 | The level of expressed mRNA in the presence of chemical substance/The level of expressed mRNA in the absence of chemical substance (yeast gene YLL041C, cells incubated two hours with the chemical substance): 1.0 | The level of expressed mRNA in the presence of chemical substance/The level of expressed mRNA in the absence of chemical substance (yeast gene YLR038C, cells incubated two hours with the chemical substance): 2.1 | The level of expressed mRNA in the presence of chemical substance/The level of expressed mRNA in the absence of chemical substance (yeast gene YLR044C, cells incubated two hours with the chemical substance): 0.9 | The level of expressed mRNA in the presence of chemical substance/The level of expressed mRNA in the absence of chemical substance (yeast gene YLR134W, cells incubated two hours with the chemical substance): 0.8 | The level of expressed mRNA in the presence of chemical substance/The level of expressed mRNA in the absence of chemical substance (yeast gene YLR258W, cells incubated two hours with the chemical substance): 3.5 | The level of expressed mRNA in the presence of chemical substance/The level of expressed mRNA in the absence of chemical substance (yeast gene YLR284C, cells incubated two hours with the chemical substance): 1.9 | The level of expressed mRNA in the presence of chemical substance/The level of expressed mRNA in the absence of chemical substance (yeast gene YLR295C, cells incubated two hours with the chemical substance, 25° C., YPD medium): 1.7 | The level of expressed mRNA in the presence of chemical substance/The level of expressed mRNA in the absence of chemical substance (yeast gene YLR304C, cells incubated two hours with the chemical substance): 0.7 | The level of expressed mRNA in the presence of chemical substance/The level of expressed mRNA in the absence of chemical substance (yeast gene YLR345W): 1.2 | The level of expressed mRNA in the presence of chemical substance/The level of expressed mRNA in the absence of chemical substance (yeast gene YLR354C, cells incubated two hours with the chemical substance): 1.5 | The level of expressed mRNA in the presence of chemical substance/The level of expressed mRNA in the absence of chemical substance (yeast gene YLR377C, cells incubated two hours with the chemical substance): 1.2 | The level of expressed mRNA in the presence of chemical substance/The level of expressed mRNA in the absence of chemical substance (yeast gene YLR395C, cells incubated two hours with the chemical substance): 1.9 | The level of expressed mRNA in the presence of chemical substance/The level of expressed mRNA in the absence of chemical substance (yeast gene YML087C): 2.5 | The level of expressed mRNA in the presence of chemical substance/The level of expressed mRNA in the absence of chemical substance (yeast gene YML120C, cells incubated two hours with the chemical substance): 1.9 | The level of expressed mRNA in the presence of chemical substance/The level of expressed mRNA in the absence of chemical substance (yeast gene YML129C, cells incubated two hours with the chemical substance): 1.2 | The level of expressed mRNA in the presence of chemical substance/The level of expressed mRNA in the absence of chemical substance (yeast gene YMR073C, cells incubated two hours with the chemical substance): 1.5 | The level of expressed mRNA in the presence of chemical substance/The level of expressed mRNA in the absence of chemical substance (yeast gene YMR118C): 1.6 | The level of expressed mRNA in the presence of chemical substance/The level of expressed mRNA in the absence of chemical substance (yeast gene YMR205C, cells incubated two hours with the chemical substance): 0.8 | The level of expressed mRNA in the presence of chemical substance/The level of expressed mRNA in the absence of chemical substance (yeast gene YMR261C, cells incubated two hours with the chemical substance): 0.8 | The level of expressed mRNA in the presence of chemical substance/The level of expressed mRNA in the absence of chemical substance (yeast gene YMR267W, cells incubated two hours with the chemical substance, 25° C., YPD medium): 0.9 | The level of expressed mRNA in the presence of chemical substance/The level of expressed mRNA in the absence of chemical substance (yeast gene YMR323W, cells incubated two hours with the chemical substance): 1.1 | The level of expressed mRNA in the presence of chemical substance/The level of expressed mRNA in the absence of chemical substance (yeast gene YNL071W): 1.5 | The level of expressed mRNA in the presence of chemical substance/The level of expressed mRNA in the absence of chemical substance (yeast gene YNL202W, cells incubated two hours with the chemical substance): 1.7 | The level of expressed mRNA in the presence of chemical substance/The level of expressed mRNA in the absence of chemical substance (yeast gene YNL241C): 1.0 | The level of expressed mRNA in the presence of chemical substance/The level of expressed mRNA in the absence of chemical substance (yeast gene YNL331C): 1.0 | The level of expressed mRNA in the presence of chemical substance/The level of expressed mRNA in the absence of chemical substance (yeast gene YOL086C, cells incubated two hours with the chemical substance): 1.1 | The level of expressed mRNA in the presence of chemical substance/The level of expressed mRNA in the absence of chemical substance (yeast gene YOL165C): 0.9 | The level of expressed mRNA in the presence of chemical substance/The level of expressed mRNA in the absence of chemical substance (yeast gene YOR142W, cells incubated two hours with the chemical substance): 1.0 | The level of expressed mRNA in the presence of chemical substance/The level of expressed mRNA in the absence of chemical substance (yeast gene YOR178C, cells incubated two hours with the chemical substance): 2.3 | The level of expressed mRNA in the presence of chemical substance/The level of expressed mRNA in the absence of chemical substance (yeast gene YOR388C, cells incubated two hours with the chemical substance): 4.7 | The level of expressed mRNA in the presence of chemical substance/The level of expressed mRNA in the absence of chemical substance (yeast gene YPL031C, cells incubated two hours with the chemical substance): 0.8 | The level of expressed mRNA in the presence of chemical substance/The level of expressed mRNA in the absence of chemical substance (yeast gene YPL061W, cells incubated two hours with the chemical substance): 1.3 | The level of expressed mRNA in the presence of chemical substance/The level of expressed mRNA in the absence of chemical substance (yeast gene YPL088W): 2.5 | The level of expressed mRNA in the presence of chemical substance/The level of expressed mRNA in the absence of chemical substance (yeast gene YPL171C): 2.2 | The level of expressed mRNA in the presence of chemical substance/The level of expressed mRNA in the absence of chemical substance (yeast gene YPL240C): 0.9 | The level of expressed mRNA in the presence of chemical substance/The level of expressed mRNA in the absence of chemical substance (yeast gene YPL262W, cells incubated two hours with the chemical substance): 1.2 | The level of expressed mRNA in the presence of chemical substance/The level of expressed mRNA in the absence of chemical substance (yeast gene YPL275W, cells incubated two hours with the chemical substance): 5.1 | The level of expressed mRNA in the presence of chemical substance/The level of expressed mRNA in the absence of chemical substance (yeast gene YPL276W, cells incubated two hours with the chemical substance): 3.0 | The level of expressed mRNA in the presence of chemical substance/The level of expressed mRNA in the absence of chemical substance (yeast gene YPR048W, cells incubated two hours with the chemical substance): 1.1 | The level of expressed mRNA in the presence of chemical substance/The level of expressed mRNA in the absence of chemical substance (yeast gene YPR184W, cells incubated two hours with the chemical substance): 2.2
